US8703815B2, “Small molecules that covalently modify transthyretin” (The Scripps Research Institute, priority 2009, dated 2014)

Key:
[1] = target: T1, K15A-TTR (Homo sapiens, UniProt P02766, K35A); experiment: Non-covalent binding stoichiometry to K15A-TTR (immunocapture, HPLC); settings: maximum of 2 equivalents, washing, high-pH dissociation
T1 construct: composed of 127-residue β-sheet-rich subunits; made in house
Description: K15A-TTR and any compound bound to it was immunocaptured using a Sepharose-resin-conjugated anti-TTR antibody.
The ability of compounds A1 and A2, auxochromic analogs of previously discussed stilbenes [Klabunde et al., Nat. Struct. Biol. 2000, 7, 312-321; Connelly et al., Curr. Opin. Struc. Biol. 2010, 20, 54-62; Johnson et al., J. Med. Chem. 2008, 51, 6348-6358; Choi et al., J. Am. Chem. Soc. 2010, 132, 1359-1370; Choi et al., Nat. Chem. Biol. 2010, 6, 133-139; and Baures et al., Bioorg. Med. Chem. 1998, 6, 1389-1401] to form a chemoselective amide bond with the K15 residue of TTR was assessed by reverse-phase-HPLC and liquid chromatography-mass spectrometry analysis. […]
To 1 mL of WT- or K15A-TTR (5 μM in pH 7.0 phosphate buffer) in a 2 mL Eppendorf tube was added A2 (5 μL of a 2 mM solution in DMSO, final concentration: 10 μM) and then the solution was incubated at 37° C. for 24 hours on a rocker plate (30 rpm). […] After centrifugation, the supernatant was analyzed by reverse phase HPLC on a Water 600 E multi-solvent delivery system, using a Waters 486 tunable absorbance detector, a 717 autosampler, and a ThermoHypersil Keystone Betabasic-18 column (150 Å pore size, 3 μm particle size). […]

[2] = Photoisomerization upon irradiation (312 nm, 10 seconds); type: physicochemical
Description: Although TTR can bind to small molecules composed of two aromatic rings when the tethered rings are up to 40° out of plane {based on TTR-stilbene crystal structures [Klabunde et al., Nat. Struct. Biol. 2000, 7, 312-321; Connelly et al., Curr. Opin. Struc. Biol. 2010, 20, 54-62; Johnson et al., J. Med. Chem. 2008, 51, 6348-6358; Choi et al., J. Am. Chem. Soc. 2010, 132, 1359-1370; Choi et al., Nat. Chem. Biol. 2010, 6, 133-139; Baures et al., Bioorg. Med. Chem. 1998, 6, 1389-1401; and Baures et al., Bioorg. Med. Chem. 1999, 7, 1339-1347]}, it would be energetically unfavorable to bind the excited singlet state in a conformation where the two aryl rings are oriented perpendicular to one another. Thus, we propose that the increase in fluorescence quantum yield of B2 from 0.09 in buffer to 0.55 in complex with TTR results from the resculpted excited singlet state energy surface of the stilbene in complex with TTR, such that the trans-conformer is the only state of relatively low potential energy [Gorner, H.; Kuhn, H. J. Adv, Photochem. 1995, 19, 1-117; Malkin et al., J. Phys. Chem. 1964, 68, 1153-1163; Saltiel, J. J. Am. Chem. Soc. 1967, 89, 1036-1037; Saltiel et al., J. Am. Chem. Soc. 1972, 94, 6445-6457; Saltiel et al., J. Am. Chem. Soc. 1979, 101, 2982-2996; and Saltiel et al., J. Am. Chem. Soc. 1968, 90, 4759-4760] inhibiting photoisomerization-based relaxation of B2. That B2 binding to TTR inhibits B2 photoisomerization is consistent with the observation that the irradiation of B2 in buffer (Life Technologies, TFX-35M, 312 nm) for 10 seconds affords 60% of the cis isomer, along with other minor photoreaction products, whereas irradiation of B2 bound to TTR yields only 20% cis isomer.
It appears that the increase in fluorescence quantum yield of A2 from 0.00 in buffer to 0.27 in the TTR-(stilbene)n≦2 conjugate is only partly explained by the mechanism proposed for B2 [Gorner, H.; Kuhn, H. J. Adv, Photochem. 1995, 19, 1-117; Malkin et al., J. Phys. Chem. 1964, 68, 1153-1163; Saltiel, J. J. Am. Chem. Soc. 1967, 89, 1036-1037; Saltiel et al., J. Am. Chem. Soc. […]

[3] = target: T2, WT-TTR (Homo sapiens, UniProt P02766); experiment: Quantum yield measurement with WT-TTR; type: physicochemical; settings: compound 7.2 μM
T2 construct: composed of 127-residue β-sheet-rich subunits; made in house; host or cells: E. coli
Description: The covalent TTR modifier A1 or A2 or the non-covalent TTR ligand B2 (15 μL of a 1.44 mM solution in DMSO, final concentration: 7.2 μM) was added to 3 mL of a solution of WT-TTR homotetramer (0.2 mg/mL, 3.6 μM) in 10 mM phosphate, 100 mM KCl and 1 mM EDTA (pH 7.0 phosphate buffer). The samples were vortexed, and incubated for 18 hours at 25° C. Quantum yields were measured by following the instructions at the web site: jobinyvon.com/usadivisions/Fluorescence/applications/quantumyieldstrad.pdf. Quinine bisulfate in 0.5 M H2SO4 was used as a reference for comparison (Φf=0.546). [Crosby et al., J. Phys. Chem. 1971, 75, 991-1024.]

photoisomerization upon irradiation in buffer (in words) [2]	fluorescence quantum yield in complex or conjugate with TTR [3]	Compound	equivalents non-covalently bound to K15A-TTR homotetramer [1]
		Cc1cc(/C=C/c2cccc(C(=O)Oc3ccc(F)cc3)c2)cc(C)c1O [Compound 4, (E)-4-fluorophenyl 3-(4-hydroxy-3,5-dimethylstyryl)benzoate]	1.4 equivalents
does not readily form the cis isomer	0.27	Cc1cc(/C=C/c2cc(C(=O)Sc3ccc(F)cc3)cc(N(C)C)c2)cc(C)c1O [Compound A2, (E)-S-4-fluorophenyl 3-(dimethylamino)-5-(4-hydroxy-3,5-dimethylstyryl)-benzothioate]	0.88 equivalents
